{
  "source": "paper PMC9652379",
  "about": "“Safety evaluations of a synthetic antimicrobial peptide administered intravenously in rats and dogs” (Scientific Reports, 2022)",
  "key": {"Sprague Dawley rats": {"test_system": "Sprague Dawley rats", "experiment": "Dose range finding in rats: haematology, clinical biochemistry, urinalysis", "format": "in vivo, rat", "conditions": "female rats, 7 days, mean ± SD", "experimental": "Clinical haematology, biochemistry and urinalysis parameters were evaluated in animals in Phase II at the end of the treatment period. A complete list of parameters is reported in Materials and Methods. Administration of SET-M33 at 10 and 20 mg/kg/day for 7 days caused a statistically significant decrease of reticulocytes in males and females. […] There were significant differences in other parameters, such as glucose (males at 10 and 20 mg/kg/day), cholesterol (males at 20 mg/kg/day), triglycerides (females at 20 mg/kg/day), electrolytes, total protein and albumin (males at 20 mg/kg/day). Increased urine volume and lower specific gravity compared to the control group was recorded in both sexes at both doses. […]\nBlood samples were drawn from the retro-orbital plexus of all animals under light isoflurane anaesthesia. […] The following parameters were determined using an ADVIA 120 haematology analyser (Siemens Healthcare): Red blood cell count (RBC), haemoglobin (Hb), haematocrit (Hct), mean corpuscular volume (MCV), mean corpuscular haemoglobin (MCH), mean corpuscular haemoglobin concentration (MCHC), reticulocyte count (absolute and relative) (Retic), platelet count (Plt), total leukocyte count (WBC), neutrophils (N), lymphocytes (L), monocytes (M), eosinophils (E), basophils (B), large unstained cells (LUC). […]"}, "in vivo": {"experiment": "in vivo", "conditions": "dog", "experimental": "Concentrations of SET-M33 in dog plasma samples and the main toxicokinetic parameters were determined. The exposure parameters (AUCt and Cmax) were compared to evaluate dose-dependency, accumulation ratio and sex-related differences. […] Mean SET-M33 plasma levels increased in parallel in males and females. Mean time to maximum SET-M33 concentration (tmax) was after the end of infusion for both periods (days 1 and 7) and sexes, i.e. 30 min post-dose, coherently with intravenous administration. On day 1 and 7, mean AUCt and Cmax values for the low vs. high dose were close to the theoretical ratio of 2.\nBlood samples were taken by direct venepuncture of the jugular vein on days 1 and 7 to determine plasma levels of SET-M33. Sampling times were as follows: Day 1: at 0, 5, 15, 30, 60 and 180 min. Day 7: at 0, 5, 15, 30, 60, 180 min and 24 h after administration. Control animals were only bled once on days 1 and 7 of treatment, 1 h after administration. Blood samples were collected into lithium heparin test tubes and kept in an ice bath until centrifuging (1600 g for 10 min at 2–8 °C). The plasma obtained from each sample was transferred to a fresh polypropylenes test tubes, immediately frozen in dry ice and stored at − 20 °C ± 5."}, "[1]": {"experiment": "Toxicokinetics in rats, 4 weeks daily iv slow bolus", "format": "in vivo, rat", "conditions": "for AUC(0-t) / Cmax / tmax: iv", "experimental": "SET-M33 was administered intravenously as a slow bolus to Sprague Dawley rats once daily for 4 weeks at 0 (vehicle only), 5, 9 and 15 mg/kg/day (control group 3 animals/sex, treated groups 6 animals/sex). Blood samples were taken on day 1 and day 28. […] Mean plasma SET-M33 exposure increased in parallel with dose in males and females. […] Mean time to maximum plasma SET-M33 concentration (tmax) was 5 min post-dose for both times and sexes as expected for intravenous bolus administration. […] On day 28, female intermediate dose AUC0-t ratio was 1.7 times the theoretical ratio.\nBlood samples were drawn from the retro-orbital sinus under light isoflurane anaesthesia for determination of plasma SET-M33 levels. The samples were taken on days 1 and 28 of treatment at the following times: control group: pre-dose and 30 min; 5, 9 and 15 mg/kg/day-group: pre-dose, 5, 15, 30, 60 min and 24 h after administration. Blood samples were collected into polypropylene test tubes containing lithium heparin anticoagulant and kept at room temperature for no longer than 60 min until centrifuging (1600 g for 10 min at 2–8 °C). The plasma obtained from each sample was transferred to a fresh polypropylene test tubes, immediately frozen in dry ice and stored at − 20 °C ± 5. Plasma concentrations of SET-M33 were measured by a previously validated LC–MS/MS method. Toxicokinetic parameters were determined for mean plasma concentrations at each dose level and time point, according to the validated method and with WinNonlin software, version 6.3, in the Phoenix Suite version 1.3 (Pharsight Corporation, Mountain View, CA, USA)."}, "[2]": {"conditions": "female, Sprague Dawley, rat, in vivo, 5 mg/kg/day"}, "[3]": {"conditions": "male, Sprague Dawley, rat, in vivo, 5 mg/kg/day"}, "[4]": {"conditions": "male, Sprague Dawley, rat, in vivo, 9 mg/kg/day"}, "[5]": {"conditions": "male, Sprague Dawley, rat, in vivo, 15 mg/kg/day"}},
  "note": "Positions of bridges follow the written chain, without caps; N, C: chain ends. Non-standard residues stand in square brackets, D forms with d. Residues, ends and D or L forms follow the SMILES beside them. Chains are numbered I, II in the order given. βAla = NCCC(=O)O",
  "data": [
    {"smiles": "CC[C@H](C)[C@H](NC(=O)[C@H](CCCCN)NC(=O)[C@@H](N)CCCCN)C(=O)N[C@@H](CCCNC(=N)N)C(=O)N[C@H](C(=O)N[C@@H](CCCNC(=N)N)C(=O)N[C@@H](CC(C)C)C(=O)N[C@@H](CO)C(=O)N[C@@H](C)C(=O)NCCCC[C@H](NC(=O)[C@H](C)NC(=O)[C@H](CO)NC(=O)[C@H](CC(C)C)NC(=O)[C@H](CCCNC(=N)N)NC(=O)[C@@H](NC(=O)[C@H](CCCNC(=N)N)NC(=O)[C@@H](NC(=O)[C@H](CCCCN)NC(=O)[C@@H](N)CCCCN)[C@@H](C)CC)C(C)C)C(=O)NCCCC[C@H](NC(=O)[C@H](CCCCNC(=O)[C@H](C)NC(=O)[C@H](CO)NC(=O)[C@H](CC(C)C)NC(=O)[C@H](CCCNC(=N)N)NC(=O)[C@@H](NC(=O)[C@H](CCCNC(=N)N)NC(=O)[C@@H](NC(=O)[C@H](CCCCN)NC(=O)[C@@H](N)CCCCN)[C@@H](C)CC)C(C)C)NC(=O)[C@H](C)NC(=O)[C@H](CO)NC(=O)[C@H](CC(C)C)NC(=O)[C@H](CCCNC(=N)N)NC(=O)[C@@H](NC(=O)[C@H](CCCNC(=N)N)NC(=O)[C@@H](NC(=O)[C@H](CCCCN)NC(=O)[C@@H](N)CCCCN)[C@@H](C)CC)C(C)C)C(=O)NCCC(=O)O)C(C)C", "note": "[SET-M33] (I: H-KKIRVRLSAKK[βAla]-OH / II: H-KKIRVRLSAK / III: H-KKIRVRLSA / IV: H-KKIRVRLSA; amide I:10-IV:C, I:11-II:C, II:10-III:C (inferred); N-terminus and C-terminus assumed)", "values": [
      {"measurement": "Phos, inorganic phosphorus", "setting": "Sprague Dawley rats; 10 mg/kg/day iv", "value": "1.96 ± 0.187", "unit": "mmol/L"},
      {"measurement": "Phos, inorganic phosphorus", "setting": "Sprague Dawley rats; 20 mg/kg/day iv", "value": "2.05 ± 0.26", "unit": "mmol/L"},
      {"measurement": "tmax", "setting": "in vivo; both sexes, beagle, iv", "value": 30, "unit": "min"},
      {"measurement": "quantifiable plasma concentrations until, after the start of infusion", "setting": "in vivo; 8 mg/kg/day", "value": "up to 24.5 h"},
      {"measurement": "AUC(0-t)", "setting": "[1]; [2]", "value": 1218, "unit": "ng·h/mL"},
      {"measurement": "Cmax", "setting": "[1]; [2]", "value": 4103, "unit": "ng/mL"},
      {"measurement": "AUC(0-t)", "setting": "[1]; female, Sprague Dawley, rat, in vivo, 5 mg/kg/day, AUC0-t", "value": 663, "unit": "ng·h/mL"},
      {"measurement": "Cmax", "setting": "[1]; female, Sprague Dawley, rat, in vivo, 5 mg/kg/day, Cmax", "value": 2110, "unit": "ng/mL"},
      {"measurement": "AUC(0-t)", "setting": "[1]; [3]", "value": 938, "unit": "ng·h/mL"},
      {"measurement": "Cmax", "setting": "[1]; [3]", "value": 3017, "unit": "ng/mL"},
      {"measurement": "tmax", "setting": "[1]; [3]", "value": 5, "unit": "min"},
      {"measurement": "AUC(0-t)", "setting": "[1]; male, Sprague Dawley, rat, in vivo, 5 mg/kg/day, AUC0-t", "value": 692, "unit": "ng·h/mL"},
      {"measurement": "Cmax", "setting": "[1]; male, Sprague Dawley, rat, in vivo, 5 mg/kg/day, Cmax", "value": 2230, "unit": "ng/mL"},
      {"measurement": "AUC(0-t)", "setting": "[1]; [4]", "value": 1819, "unit": "ng·h/mL"},
      {"measurement": "Cmax", "setting": "[1]; [4]", "value": 5890, "unit": "ng/mL"},
      {"measurement": "tmax", "setting": "[1]; [4]", "value": 5, "unit": "min"},
      {"measurement": "AUC(0-t)", "setting": "[1]; male, Sprague Dawley, rat, in vivo, 9 mg/kg/day, AUC0-t", "value": 1430, "unit": "ng·h/mL"},
      {"measurement": "Cmax", "setting": "[1]; male, Sprague Dawley, rat, in vivo, 9 mg/kg/day, Cmax", "value": 4560, "unit": "ng/mL"},
      {"measurement": "AUC(0-t)", "setting": "[1]; [5]", "value": 2734, "unit": "ng·h/mL"},
      {"measurement": "Cmax", "setting": "[1]; [5]", "value": 8170, "unit": "ng/mL"},
      {"measurement": "tmax", "setting": "[1]; [5]", "value": 5, "unit": "min"},
      {"measurement": "AUC(0-t)", "setting": "[1]; male, Sprague Dawley, rat, in vivo, 15 mg/kg/day, AUC0-t", "value": 2240, "unit": "ng·h/mL"},
      {"measurement": "Cmax", "setting": "[1]; male, Sprague Dawley, rat, in vivo, 15 mg/kg/day, Cmax", "value": 6040, "unit": "ng/mL"},
      {"measurement": "mean tmax", "setting": "[1]; rat, in vivo", "value": 5, "unit": "min"},
      {"measurement": "quantifiable plasma concentrations until, post-dose", "setting": "[1]; rat, in vivo", "value": 1, "unit": "h"},
      {"measurement": "intermediate dose AUC0-t ratio relative to the theoretical ratio", "setting": "[1]; rat, in vivo, 9 mg/kg/day", "value": 1.7, "unit": "times"},
      {"measurement": "tmax", "setting": "[1]; rat, in vivo, 5 mg/kg/day", "value": 5, "unit": "min"},
      {"measurement": "tmax", "setting": "[1]; rat, in vivo, 9 mg/kg/day", "value": 5, "unit": "min"},
      {"measurement": "tmax", "setting": "[1]; rat, in vivo, 15 mg/kg/day", "value": 5, "unit": "min"},
      {"measurement": "mean AUC0-t ratio, low vs. intermediate dose (theoretical ratio 1.8)", "setting": "[1]; rats, 5 vs 9 mg/kg/day, day 1", "value": 2},
      {"measurement": "mean Cmax ratio, low vs. intermediate dose (theoretical ratio 1.8)", "setting": "[1]; rats, 5 vs 9 mg/kg/day, day 1", "value": "1.7–2"},
      {"measurement": "mean AUC0-t ratio, low vs. high dose (theoretical ratio 3)", "setting": "[1]; rats, 5 vs 15 mg/kg/day, day 1", "value": "2.9–3.2"},
      {"measurement": "mean Cmax ratio, low vs. high dose (theoretical ratio 3)", "setting": "[1]; rats, 5 vs 15 mg/kg/day, day 1", "value": 2.7}
    ]}
  ]
}
